Assays:
[1] = biological target: T1, Neuropeptide Y receptor type 1 (Homo sapiens, UniProt P25929); assay: Ability to displace [125I]-peptide YY binding to cloned human Neuropeptide Y receptor type 1 expressed in AV-12 cells; assay type: cell-based, AV12
T1 sequence (P25929 whole entry): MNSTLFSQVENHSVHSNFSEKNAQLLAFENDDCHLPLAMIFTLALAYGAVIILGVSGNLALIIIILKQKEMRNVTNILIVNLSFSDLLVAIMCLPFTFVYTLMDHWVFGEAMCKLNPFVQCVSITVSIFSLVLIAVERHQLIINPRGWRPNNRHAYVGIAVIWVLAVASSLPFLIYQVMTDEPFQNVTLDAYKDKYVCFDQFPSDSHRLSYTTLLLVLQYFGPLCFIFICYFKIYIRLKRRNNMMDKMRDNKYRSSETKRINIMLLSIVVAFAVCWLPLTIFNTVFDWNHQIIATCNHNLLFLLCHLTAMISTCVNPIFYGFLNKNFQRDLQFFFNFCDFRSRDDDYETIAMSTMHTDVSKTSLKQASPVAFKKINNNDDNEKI

[2] = system: SK-N-MC; assay: Ability to antagonize 1 nM NPY''s inhibition of forskolin-stimulated cyclic AMP accumulation in SK-N-MC cells; assay type: functional, cell-based, Homo sapiens
[3] = biological target: T2, Neuropeptide Y receptor type 2 (Homo sapiens) (UniProt P49146); assay: Ability to displace [125I]-peptide YY binding to cloned human Neuropeptide Y receptor type 2 expressed in CHO cells at a concentration of 1 uM; assay type: cell-based
T2 sequence (whole entry): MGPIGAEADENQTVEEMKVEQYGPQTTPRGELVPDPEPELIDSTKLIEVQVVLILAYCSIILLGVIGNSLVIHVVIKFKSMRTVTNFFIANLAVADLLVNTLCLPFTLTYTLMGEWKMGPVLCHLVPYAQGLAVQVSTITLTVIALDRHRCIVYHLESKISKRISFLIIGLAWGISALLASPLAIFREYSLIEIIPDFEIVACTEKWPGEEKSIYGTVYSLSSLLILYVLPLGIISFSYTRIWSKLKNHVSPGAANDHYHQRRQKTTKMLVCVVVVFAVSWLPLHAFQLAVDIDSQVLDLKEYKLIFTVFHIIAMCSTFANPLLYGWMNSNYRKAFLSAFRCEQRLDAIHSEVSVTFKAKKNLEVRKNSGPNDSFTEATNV

[4] = biological target: T3, Neuropeptide Y receptor type 5 (Homo sapiens) (UniProt Q15761); assay: Ability to displace [125I]-peptide YY binding to cloned human Neuropeptide Y receptor type 5 expressed in CHO cells at a concentration of 1 uM; assay type: cell-based
T3 sequence (whole entry): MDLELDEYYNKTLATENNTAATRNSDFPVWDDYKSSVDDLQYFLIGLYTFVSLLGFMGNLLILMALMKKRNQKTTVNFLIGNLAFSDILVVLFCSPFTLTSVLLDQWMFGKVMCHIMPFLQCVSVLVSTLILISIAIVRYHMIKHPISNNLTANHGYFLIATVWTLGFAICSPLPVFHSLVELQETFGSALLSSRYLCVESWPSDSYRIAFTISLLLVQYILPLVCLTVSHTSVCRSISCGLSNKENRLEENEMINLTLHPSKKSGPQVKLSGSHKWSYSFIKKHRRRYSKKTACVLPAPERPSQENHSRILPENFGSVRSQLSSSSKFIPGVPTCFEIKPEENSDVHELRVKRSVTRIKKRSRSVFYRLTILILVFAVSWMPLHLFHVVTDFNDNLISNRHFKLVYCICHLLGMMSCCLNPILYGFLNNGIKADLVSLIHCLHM

[5] = biological target: Neuropeptide Y receptor type 4 (Homo sapiens) (UniProt P50391); assay: Ability to displace [125I]-peptide YY binding to cloned human Neuropeptide Y receptor type 4 expressed in CHO cells at a concentration of 1 uM; assay type: cell-based
Sequence of Neuropeptide Y receptor type 4 (Homo sapiens) (P50391 whole entry): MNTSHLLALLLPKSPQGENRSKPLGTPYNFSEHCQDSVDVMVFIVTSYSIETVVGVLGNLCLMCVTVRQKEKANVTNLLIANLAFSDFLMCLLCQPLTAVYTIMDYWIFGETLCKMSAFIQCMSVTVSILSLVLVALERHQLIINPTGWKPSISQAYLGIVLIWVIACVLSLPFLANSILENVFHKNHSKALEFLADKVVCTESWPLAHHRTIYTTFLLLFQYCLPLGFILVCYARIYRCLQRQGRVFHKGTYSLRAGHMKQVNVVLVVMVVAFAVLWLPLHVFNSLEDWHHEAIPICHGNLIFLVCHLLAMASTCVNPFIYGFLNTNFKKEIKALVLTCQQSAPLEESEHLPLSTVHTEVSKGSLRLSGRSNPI

| SMILES | Ki [1] | other results |
| --- | --- | --- |
| c1ccc(OCc2nc3c(OCCCN4CCCCC4)cccc3n2CCCC2CCN(CCCN3CCCCC3)CC2)cc1 | 0.106 nM | Ki [2]: 0.564 nM |
| CC(C)CN1CCC(CCCn2c(COc3ccccc3)nc3c(OCCCN4CCCCC4)cccc32)CC1 | 0.829 nM |  |
| C=CCCN1CCC(CCCn2c(COc3ccccc3)nc3c(OCCCN4CCCCC4)cccc32)CC1 | 0.707 nM |  |
| c1ccc(CCN2CCC(CCCn3c(COc4ccccc4)nc4c(OCCCN5CCCCC5)cccc43)CC2)cc1 | 0.191 nM |  |
| c1ccc(OCc2nc3c(OCCCN4CCCCC4)cccc3n2CCCC2CCN(CCC3CCCCC3)CC2)cc1 | 0.285 nM | Ki [2]: 5.2 nM |
| O=C(CN1CCC(N2CCCCC2)CC1)c1c(COc2ccc(Cl)cc2)n(CCCC2CCCNC2)c2ccccc12 (stereo not given) | 0.75 nM |  |
| CC(C)CCN1CCC(CCCn2c(COc3ccccc3)nc3c(OCCCN4CCCCC4)cccc32)CC1 | 0.29 nM |  |
| CN1CCC(CCCn2c(COc3ccccc3)nc3c(OCCCN4CCCCC4)cccc32)CC1 | 1.62 nM |  |
| Ic1ccc(CCN2CCC(CCCn3c(COc4ccccc4)nc4c(OCCCN5CCCCC5)cccc43)CC2)cc1 | 0.052 nM | inhibition [3]: < 50%; inhibition [4]: < 50%; inhibition [5]: < 50%; Ki [2]: 6 nM |
| c1ccc(OCc2nc3c(OCCCN4CCCCC4)cccc3n2CCCC2CCN(CC3CCCCC3)CC2)cc1 | 0.393 nM |  |
| c1ccc(CCCN2CCC(CCCn3c(COc4ccccc4)nc4c(OCCCN5CCCCC5)cccc43)CC2)cc1 | 0.361 nM | Ki [2]: 3.4 nM |
| c1ccc(OCc2nc3c(OCCCN4CCCCC4)cccc3n2CCCC2CCNCC2)cc1 | 4.5 nM |  |
| O=C(CCCN1CCC(CCCn2c(COc3ccccc3)nc3c(OCCCN4CCCCC4)cccc32)CC1)c1ccccc1 | 0.132 nM |  |
| O=C(CCN1CCC(CCCn2c(COc3ccccc3)nc3c(OCCCN4CCCCC4)cccc32)CC1)c1ccccc1 | 0.112 nM |  |
| C=CCN1CCC(CCCn2c(COc3ccccc3)nc3c(OCCCN4CCCCC4)cccc32)CC1 | 1.63 nM |  |
| CC(C)N1CCC(CCCn2c(COc3ccccc3)nc3c(OCCCN4CCCCC4)cccc32)CC1 | 1.61 nM |  |
| C(=C/c1ccccc1)/CN1CCC(CCCn2c(COc3ccccc3)nc3c(OCCCN4CCCCC4)cccc32)CC1 | 0.183 nM |  |
| Oc1ccc(CCN2CCC(CCCn3c(COc4ccccc4)nc4c(OCCCN5CCCCC5)cccc43)CC2)cc1 | 0.313 nM |  |

Reference: ChEMBL document CHEMBL1131957, “Structure-activity relationship of a series of diaminoalkyl substituted benzimidazole as neuropeptide Y Y1 receptor antagonists” (Bioorg Med Chem Lett, 1999)
